Experiments:
[1] = Selectivity index, ratio of IC50 for equine serum BuChE to IC50 for AChE (unknown origin)
Acetylcholinesterase = Acetylcholinesterase (Homo sapiens, UniProt P22303); assay: Inhibition of AChE (unknown origin) using acetylthiocholine iodide substrate by Ellman's method based spectrophotometry
[2] = Selectivity index, ratio of IC50 for AChE (unknown origin) to IC50 for equine serum BuChE
Cholinesterase = Cholinesterase (Equus caballus, UniProt P81908); assay: Inhibition of equine serum BuChE using S-butyrylthiocholine chloride substrate by Ellman's method based spectrophotometry
Chain of Cholinesterase (P81908 whole entry): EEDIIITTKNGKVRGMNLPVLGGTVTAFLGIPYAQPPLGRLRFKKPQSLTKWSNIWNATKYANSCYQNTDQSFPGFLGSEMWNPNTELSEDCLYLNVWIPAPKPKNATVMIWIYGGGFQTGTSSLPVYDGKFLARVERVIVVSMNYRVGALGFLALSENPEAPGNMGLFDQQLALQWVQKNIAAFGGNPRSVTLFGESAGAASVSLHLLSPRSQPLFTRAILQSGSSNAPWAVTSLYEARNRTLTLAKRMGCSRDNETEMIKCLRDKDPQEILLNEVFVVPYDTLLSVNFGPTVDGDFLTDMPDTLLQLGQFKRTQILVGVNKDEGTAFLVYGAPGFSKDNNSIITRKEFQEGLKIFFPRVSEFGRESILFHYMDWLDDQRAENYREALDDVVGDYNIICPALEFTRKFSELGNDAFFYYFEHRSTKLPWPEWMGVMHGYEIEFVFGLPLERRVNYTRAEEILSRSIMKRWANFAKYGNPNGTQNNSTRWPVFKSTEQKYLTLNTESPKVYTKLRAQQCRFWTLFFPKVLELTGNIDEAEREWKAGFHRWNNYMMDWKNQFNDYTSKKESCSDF

Chain of Acetylcholinesterase (P22303 whole entry): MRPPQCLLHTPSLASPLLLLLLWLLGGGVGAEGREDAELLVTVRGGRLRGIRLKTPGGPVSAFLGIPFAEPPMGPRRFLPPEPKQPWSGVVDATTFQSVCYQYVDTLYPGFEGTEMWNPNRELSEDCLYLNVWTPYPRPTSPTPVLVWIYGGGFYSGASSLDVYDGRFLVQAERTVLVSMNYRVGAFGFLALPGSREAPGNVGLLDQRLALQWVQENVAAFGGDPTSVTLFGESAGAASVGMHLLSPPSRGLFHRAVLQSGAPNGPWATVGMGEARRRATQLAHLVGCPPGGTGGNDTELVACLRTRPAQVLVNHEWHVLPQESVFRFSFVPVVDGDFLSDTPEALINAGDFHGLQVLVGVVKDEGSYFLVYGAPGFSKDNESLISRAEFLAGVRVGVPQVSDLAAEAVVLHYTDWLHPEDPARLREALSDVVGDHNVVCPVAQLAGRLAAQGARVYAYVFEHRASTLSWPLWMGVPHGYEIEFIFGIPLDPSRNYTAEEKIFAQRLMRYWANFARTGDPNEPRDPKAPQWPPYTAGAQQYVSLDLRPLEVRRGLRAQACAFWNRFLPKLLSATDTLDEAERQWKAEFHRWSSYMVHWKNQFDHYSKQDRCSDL

Structure (SMILES)	Ratio IC50 [1]	IC50 (Acetylcholinesterase)	Ratio IC50 [2]	IC50 (Cholinesterase)
C=CC(=O)N1C/C(=C\c2ccc(Cl)cc2)C(=O)/C(=C/c2ccc(Cl)cc2)C1	1.73	22 µM	0.58	38.2 µM
C=CC(=O)N1C/C(=C\c2ccccc2)C(=O)/C(=C/c2ccccc2)C1	1.25	17.7 µM	0.8	22.1 µM
C=CC(=O)N1C/C(=C\c2ccccc2Cl)C(=O)/C(=C/c2ccccc2Cl)C1	2.24	16.3 µM	0.45	36.6 µM
C=CC(=O)N1C/C(=C\c2ccccc2F)C(=O)/C(=C/c2ccccc2F)C1	4.58	11.8 µM	0.22	54 µM
C=CC(=O)N1C/C(=C\c2cccc([N+](=O)[O-])c2)C(=O)/C(=C/c2cccc([N+](=O)[O-])c2)C1	5.24	9.76 µM	0.19	51.2 µM
C=CC(=O)N1C/C(=C\c2ccccc2C)C(=O)/C(=C/c2ccccc2C)C1	1.73	17.4 µM	0.58	30 µM
C=CC(=O)N1C/C(=C\c2ccccc2OC)C(=O)/C(=C/c2ccccc2OC)C1	3.32	8.72 µM	0.3	28.9 µM
C=CC(=O)N1C/C(=C\c2ccc(Cl)cc2Cl)C(=O)/C(=C/c2ccc(Cl)cc2Cl)C1	1.86	15.8 µM	0.54	29.4 µM
C=CC(=O)N1C/C(=C\c2cccc3ccccc23)C(=O)/C(=C/c2cccc3ccccc23)C1	1.67	13.8 µM	0.6	23.1 µM
C=CC(=O)N1C/C(=C\c2ccc(F)cc2)C(=O)/C(=C/c2ccc(F)cc2)C1	2.02	15.1 µM	0.49	30.6 µM
C=CC(=O)N1C/C(=C\c2ccc(C)cc2)C(=O)/C(=C/c2ccc(C)cc2)C1	1.94	18.1 µM	0.51	35.1 µM
Cc1ccc(/C=C2\CN(C(=O)C[C@H]3C[C@H]4CCCN4[C@]34C(=O)Nc3ccccc34)C[C@@]3(C[C@H]4CCCN4[C@@]34C(=O)Nc3ccccc34)C2=O)cc1 (racemic)	0.91	19.6 µM	1.1	17.9 µM
O=C(C[C@H]1C[C@H]2CCCN2[C@]12C(=O)Nc1ccccc12)N1C/C(=C\c2ccc(Cl)cc2Cl)C(=O)[C@]2(C[C@H]3CCCN3[C@@]23C(=O)Nc2ccccc23)C1 (racemic)	1.36	6.96 µM	0.74	9.45 µM
O=C(C[C@H]1C[C@H]2CCCN2[C@]12C(=O)Nc1ccccc12)N1C/C(=C\c2cccc([N+](=O)[O-])c2)C(=O)[C@]2(C[C@H]3CCCN3[C@@]23C(=O)Nc2ccccc23)C1 (racemic)	0.91	26.6 µM	1.1	24.3 µM
O=C(C[C@H]1C[C@H]2CCCN2[C@]12C(=O)Nc1ccccc12)N1C/C(=C\c2ccccc2F)C(=O)[C@]2(C[C@H]3CCCN3[C@@]23C(=O)Nc2ccccc23)C1 (racemic)	0.37	24.6 µM	2.7	9.09 µM
O=C(C[C@H]1C[C@H]2CCCN2[C@]12C(=O)Nc1ccccc12)N1C/C(=C\c2ccccc2Cl)C(=O)[C@]2(C[C@H]3CCCN3[C@@]23C(=O)Nc2ccccc23)C1 (racemic)	0.86	13.6 µM	1.16	11.7 µM
O=C(C[C@H]1C[C@H]2CCCN2[C@]12C(=O)Nc1ccccc12)N1C/C(=C\c2ccc(F)cc2)C(=O)[C@]2(C[C@H]3CCCN3[C@@]23C(=O)Nc2ccccc23)C1 (racemic)	0.35	23.7 µM	2.86	8.29 µM

Structure (SMILES)	Ratio IC50 [1]	IC50 (Acetylcholinesterase)	Ratio IC50 [2]	IC50 (Cholinesterase)
O=C(C[C@H]1C[C@H]2CCCN2[C@]12C(=O)Nc1ccccc12)N1C/C(=C\c2ccc(Cl)cc2)C(=O)[C@]2(C[C@H]3CCCN3[C@@]23C(=O)Nc2ccccc23)C1 (racemic)	1.38	7.92 µM	0.73	10.9 µM
COc1ccccc1/C=C1\CN(C(=O)C[C@H]2C[C@H]3CCCN3[C@]23C(=O)Nc2ccccc23)C[C@@]2(C[C@H]3CCCN3[C@@]23C(=O)Nc2ccccc23)C1=O (racemic)	1.68	11.4 µM	0.59	19.2 µM
Cc1ccccc1/C=C1\CN(C(=O)C[C@H]2C[C@H]3CCCN3[C@]23C(=O)Nc2ccccc23)C[C@@]2(C[C@H]3CCCN3[C@@]23C(=O)Nc2ccccc23)C1=O (racemic)	0.47	27.5 µM	2.12	13 µM
O=C(C[C@H]1C[C@H]2CCCN2[C@]12C(=O)Nc1ccccc12)N1C/C(=C\c2ccccc2)C(=O)[C@]2(C[C@H]3CCCN3[C@@]23C(=O)Nc2ccccc23)C1 (racemic)	0.93	19.7 µM	1.08	18.2 µM
O=C1/C(=C/c2cccc3ccccc23)CN(C(=O)C[C@H]2C[C@H]3CCCN3[C@]23C(=O)Nc2ccccc23)C/C1=C\c1cccc2ccccc12 (racemic)	1.74	6.76 µM	0.57	11.8 µM
O=C1/C(=C/c2ccccc2)CN(C(=O)C[C@H]2C[C@H]3CCCN3[C@]23C(=O)Nc2ccccc23)C/C1=C\c1ccccc1 (racemic)	0.93	17.5 µM	1.07	16.3 µM
Cc1ccccc1/C=C1\CN(C(=O)C[C@H]2C[C@H]3CCCN3[C@]23C(=O)Nc2ccccc23)C/C(=C\c2ccccc2C)C1=O (racemic)	1.43	12.5 µM	0.7	17.8 µM
COc1ccccc1/C=C1\CN(C(=O)C[C@H]2C[C@H]3CCCN3[C@]23C(=O)Nc2ccccc23)C/C(=C\c2ccccc2OC)C1=O (racemic)	0.59	15.9 µM	1.69	9.41 µM
O=C1/C(=C/c2ccccc2Cl)CN(C(=O)C[C@H]2C[C@H]3CCCN3[C@]23C(=O)Nc2ccccc23)C/C1=C\c1ccccc1Cl (racemic)	1.66	11.9 µM	0.6	19.7 µM
O=C1/C(=C/c2ccccc2F)CN(C(=O)C[C@H]2C[C@H]3CCCN3[C@]23C(=O)Nc2ccccc23)C/C1=C\c1ccccc1F (racemic)	0.1	34.4 µM	9.82	3.5 µM
O=C1/C(=C/c2cccc([N+](=O)[O-])c2)CN(C(=O)C[C@H]2C[C@H]3CCCN3[C@]23C(=O)Nc2ccccc23)C/C1=C\c1cccc([N+](=O)[O-])c1 (racemic)	3.03	5.99 µM	0.33	18.1 µM
O=C1/C(=C/c2ccc(Cl)cc2Cl)CN(C(=O)C[C@H]2C[C@H]3CCCN3[C@]23C(=O)Nc2ccccc23)C/C1=C\c1ccc(Cl)cc1Cl (racemic)	5.15	4.11 µM	0.19	21.2 µM
Cc1ccc(/C=C2\CN(C(=O)C[C@H]3C[C@H]4CCCN4[C@]34C(=O)Nc3ccccc34)C/C(=C\c3ccc(C)cc3)C2=O)cc1 (racemic)	1.26	20.1 µM	0.8	25.2 µM
O=C1/C(=C/c2ccc(Cl)cc2)CN(C(=O)C[C@H]2C[C@H]3CCCN3[C@]23C(=O)Nc2ccccc23)C/C1=C\c1ccc(Cl)cc1 (racemic)	9.6	3.36 µM	0.1	32.3 µM
O=C1/C(=C/c2ccc(F)cc2)CN(C(=O)C[C@H]2C[C@H]3CCCN3[C@]23C(=O)Nc2ccccc23)C/C1=C\c1ccc(F)cc1 (racemic)	0.2	19.8 µM	4.97	3.99 µM
O=C(C[C@H]1C[C@H]2CCCN2[C@]12C(=O)Nc1ccccc12)N1C/C(=C\c2cccc3ccccc23)C(=O)[C@]2(C[C@H]3CCCN3[C@@]23C(=O)Nc2ccccc23)C1 (racemic)	0.31	20.6 µM	3.21	6.42 µM
